Experimental data reported in PMC8151276, “An Integrated Approach toward NanoBRET Tracers for Analysis of GPCR Ligand Engagement” (Molecules, 2021).

Assays:
Type in all cases: binding
[1] = target: T1, CX3CR1 (Homo sapiens, UniProt P49238); assay: NanoBRET screen HiBiT-CX3CR1 in HEK293
T1 construct: purchased Promega (in-house HiBiT-GPCR construct library, NanoBRET)
T1 sequence (P49238 1-355): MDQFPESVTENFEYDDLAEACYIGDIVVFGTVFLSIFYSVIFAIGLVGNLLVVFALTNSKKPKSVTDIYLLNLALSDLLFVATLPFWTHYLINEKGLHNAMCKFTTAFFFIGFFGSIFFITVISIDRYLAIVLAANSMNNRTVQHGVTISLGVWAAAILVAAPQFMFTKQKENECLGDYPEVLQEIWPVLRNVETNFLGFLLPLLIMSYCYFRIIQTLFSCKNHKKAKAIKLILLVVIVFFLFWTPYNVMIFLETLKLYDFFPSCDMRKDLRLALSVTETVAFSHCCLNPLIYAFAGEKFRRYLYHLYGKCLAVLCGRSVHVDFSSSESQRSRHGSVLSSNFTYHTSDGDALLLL
Description: (§1) Each tracer candidate was screened across the entire library of HiBiT-GPCR constructs using NanoBRET as the detection modality. As depicted in Figure 4A, the specificity of interactions was evaluated through decrease in BRET due to competitive displacement of a bound tracer by excess parental compound. Each tracer was analyzed for binding to each HiBiT-GPCR fusion in the absence and in the presence of competing parental compound. Briefly, HEK293 cells were transfected with HiBiT-GPCR constructs diluted into promoterless DNA to reduce expression and maximize translocation to the cell surface. Each tracer candidate was then screened at concentrations of 1 μM and 0.1 μM across cells expressing these fusions. Cells were treated for 1.5 h with tracer either alone or in the presence of 20 μM competing parental compound (i.e., control). BRET was measured upon addition of purified LgBiT and subsequent complementation with HiBiT genetically fused to a GPCR. The specificity of interactions was assessed through a decrease in BRET signal due to competitive displacement of the bound tracer. To further gauge the robustness of these interactions, the fold response over the control (i.e., BRETtracer/BRETcontrol) was calculated. We chose a 1.5-fold response, which translates to ≥7-fold signal over noise as the minimal threshold required to score an interaction as positive. […]. Below we highlight the screening results obtained for our exemplary fluorescent tracers based on Clozapine, Amitriptyline and AZD1283.
(§2) HiBiT-GPCR DNA constructs were diluted in 10 mM Tris pH 8 to a final concentration of 0.01 μg/μL, arrayed in 96-well plates and stored at −20 °C. For transfection, HEK293 cells were suspended in Opti-MEM (without phenol red) supplemented with 2% fetal bovine serum (Seradigm) and 100 units/mL penicillin–streptomycin (Gibco) at a final concentration of 220,000 cells/mL and dispensed into white 96-well plates at 90 μL/well. Subsequent transfections and screens were carried using an Agilent Bravo Automated Liquid Handling Platform. First, the 96-well HiBiT DNA arrays were diluted 25-fold in Opti-MEM (without serum or phenol red) to a final concentration of 0.0004 μg/μL and 20 μL of the diluted DNAs were transferred into new 96-well plates. Next, promoterless carrier DNA (1 μg/μL) was diluted 25-fold (0.04 μg/μL) and then dispensed into the diluted arrays at 20 μL/well. Following brief mixing, Viafect transfection reagent (Promega) diluted 16-fold into Opti-MEM was dispensed into the plates at 40 μL/well. After mixing by pipetting, plates were incubated for 10 min on the pipetting station deck. The DNA-transfection reagent complexes were then added to plates containing cells. To facilitate the screen, 10 μL of DNA-transfection reagent complexes were added in duplicates to the top 4 and bottom 4 rows, resulting in two identical 48-well arrays per plate. Plates with transfected cells were incubated for 18–20 h at 37 °C/5% CO2. A screen of each tracer across the entire library using two different concentrations requires duplicate plates of transfected cells. Depending on the number of tracers being screened, transfections can be scaled up using the same ratios. The next day, for each tracer, four 20× screening solutions in tracer dilution buffer (Promega) were prepared: two duplicates at final concentration of 20 μM and two duplicates at a final concentration of 2 μM. A competing unmodified compound was added to one of each duplicate at a final concentration of 400 μM. The four resulting solutions were diluted 4-fold in Opti-MEM without serum or phenol red to generate 5× solutions (5 µM and 0.5 µM tracer +/− 100 μM competing compound). To screen the library, a BioTek MultiFlo FX liquid dispenser was used to dispense 22.5 µL of tracer solution to the top 4 rows and 22.5 µL tracer + competing compound solution to the 4 bottom rows. Plates were briefly mixed on an orbital shaker and incubated for 1.5 h at room temperature. […]

[2] = target: T2, BDKRB1 (Homo sapiens, UniProt P46663); assay: NanoBRET screen HiBiT-BDKRB1 in HEK293
T2 construct: purchased Promega (in-house HiBiT-GPCR construct library, NanoBRET)
T2 sequence (P46663 1-353): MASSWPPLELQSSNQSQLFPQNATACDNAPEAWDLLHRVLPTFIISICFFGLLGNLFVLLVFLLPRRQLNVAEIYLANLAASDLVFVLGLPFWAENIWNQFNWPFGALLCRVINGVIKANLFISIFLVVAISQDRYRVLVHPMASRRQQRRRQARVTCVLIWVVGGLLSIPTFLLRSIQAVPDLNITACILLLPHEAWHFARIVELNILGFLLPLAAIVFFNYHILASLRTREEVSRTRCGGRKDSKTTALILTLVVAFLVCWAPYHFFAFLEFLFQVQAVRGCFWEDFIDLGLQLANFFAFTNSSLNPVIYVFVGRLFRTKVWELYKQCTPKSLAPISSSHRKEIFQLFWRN
Description: as §1, §2

[3] = target: T3, NTSR1 (Homo sapiens, UniProt P30989); assay: NanoBRET screen HiBiT-NTSR1 in HEK293
T3 construct: purchased Promega (in-house HiBiT-GPCR construct library, NanoBRET)
T3 sequence (P30989 whole entry): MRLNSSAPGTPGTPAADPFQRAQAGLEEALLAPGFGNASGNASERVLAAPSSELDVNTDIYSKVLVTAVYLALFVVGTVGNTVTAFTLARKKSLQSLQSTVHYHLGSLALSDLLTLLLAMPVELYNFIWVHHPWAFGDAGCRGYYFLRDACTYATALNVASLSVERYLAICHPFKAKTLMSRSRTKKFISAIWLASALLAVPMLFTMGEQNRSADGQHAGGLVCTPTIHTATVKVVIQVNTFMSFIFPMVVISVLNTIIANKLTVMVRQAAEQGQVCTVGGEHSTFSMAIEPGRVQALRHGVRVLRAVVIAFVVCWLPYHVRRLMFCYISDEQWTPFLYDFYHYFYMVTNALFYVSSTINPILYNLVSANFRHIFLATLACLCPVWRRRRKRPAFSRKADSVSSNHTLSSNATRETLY
Description: as §1, §2

[4] = target: T4, PTGER1 (Homo sapiens, UniProt P34995); assay: NanoBRET screen HiBiT-PTGER1 in HEK293
T4 construct: purchased Promega (in-house HiBiT-GPCR construct library, NanoBRET)
T4 sequence (P34995 1-402): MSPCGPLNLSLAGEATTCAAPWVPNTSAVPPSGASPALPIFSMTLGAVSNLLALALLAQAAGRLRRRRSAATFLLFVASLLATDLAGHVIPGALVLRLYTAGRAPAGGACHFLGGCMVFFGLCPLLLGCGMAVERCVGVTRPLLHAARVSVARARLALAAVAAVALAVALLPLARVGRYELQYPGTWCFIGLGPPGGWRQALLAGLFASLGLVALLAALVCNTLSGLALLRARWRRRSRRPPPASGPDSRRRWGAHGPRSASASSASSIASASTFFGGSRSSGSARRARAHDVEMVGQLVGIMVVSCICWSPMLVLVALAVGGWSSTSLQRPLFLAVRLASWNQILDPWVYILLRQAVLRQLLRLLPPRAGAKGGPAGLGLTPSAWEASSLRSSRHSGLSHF
Description: as §1, §2

[5] = tracer at 0.1μM, listed as amitriptyline-b-2-NB590
[6] = tracer at 1μM, listed as amitriptyline-b-2-NB590

Compound | NanoBRET Fold Response ([1]; CX3CR1, tracer 0.1μM) | NanoBRET Fold Response ([1]; CX3CR1, tracer 1μM) | NanoBRET Fold Response ([2]; BDKRB1, tracer 0.1μM) | NanoBRET Fold Response ([2]; BDKRB1, tracer 1μM) | NanoBRET Fold Response ([3]; NTSR1, tracer 0.1μM) | NanoBRET Fold Response ([3]; NTSR1, tracer 1μM) | NanoBRET Fold Response ([4]; PTGER1, tracer 0.1μM) | NanoBRET Fold Response ([4]; PTGER1, tracer 1μM) | also measured
Cc1nc2n(c(=O)c1CCN1CCC(c3noc4cc(F)ccc34)CC1)CCCC2OC(=O)NCCOCCOCCOCCOCCNC(=O)CCc1ccc2n1[B-](F)(F)[N+]1=C(c3ccc[nH]3)C=CC1=C2 (stereo not drawn) [Risperidone-2-NB590] | 1.06 | 1.02 | 1.28 | 0.77 | 1.00 | 0.98 | 1.04 | 1.07 | 
CCOC(=O)c1cc(C#N)c(N2CCC(C(=O)NS(=O)(=O)Cc3ccccc3/C=C/C(=O)NCCNC(=O)CCc3ccc4n3[B-](F)(F)[N+]3=C(c5ccc[nH]5)C=CC3=C4)CC2)nc1C [AZD1283-1-NB590] |  |  |  |  |  |  |  |  | NanoBRET Fold Response ([1]; CX3CR1, 0.1μM): 1.09; NanoBRET Fold Response ([1]; CX3CR1, 1μM): 1.08; NanoBRET Fold Response ([2]; BDKRB1, 0.1μM): 1.05; NanoBRET Fold Response ([2]; BDKRB1, 1μM): 1.04; NanoBRET Fold Response ([3]; NTSR1, 0.1μM): 1.04; NanoBRET Fold Response ([3]; NTSR1, 1μM): 1.07; NanoBRET Fold Response ([4]; PTGER1, 0.1μM): 1.17; NanoBRET Fold Response ([4]; PTGER1, 1μM): 1.14
Cc1cc2c(s1)Nc1ccccc1N=C2N1CCN(CCCNC(=O)CCOCCOCCOCCOCCNC(=O)CCc2ccc3n2[B-](F)(F)[N+]2=C(c4ccc[nH]4)C=CC2=C3)CC1 [Olanzapine-a-2-NB590] | 1.03 | 0.97 | 0.83 | 1.10 | 1.01 | 1.02 | 1.03 | 1.04 | 
COc1ccccc1N1CCN(CCCCN2C(=O)c3ccc(CNC(=O)CCOCCNC(=O)c4ccc(CNC(=O)CCc5ccc6n5[B-](F)(F)[N+]5=C(c7ccc[nH]7)C=CC5=C6)cc4)cc3C2=O)CC1 [NAN-190-3-NB590] | 0.90 | 1.01 | 0.84 | 1.05 | 0.90 | 0.99 | 0.89 | 1.11 | 
CC(C)N(CC[C@H](c1ccccc1)c1cc(CCNC(=O)CCOCCOCCOCCOCCNC(=O)CCc2ccc3n2[B-](F)(F)[N+]2=C(c4ccc[nH]4)C=CC2=C3)ccc1O)C(C)C [Tolterodine-2-NB590] | 1.32 | 1.06 | 0.99 | 0.79 | 1.09 | 0.90 | 1.00 | 1.23 | 
CN(C)CCC=C1c2ccccc2CCc2ccc(C(=O)NCCNC(=O)CCOCCOCCOCCOCCNC(=O)CCc3ccc4n3[B-](F)(F)[N+]3=C(c5ccc[nH]5)C=CC3=C4)cc21 [Amitriptyline-b-2-NB590] |  |  |  |  |  |  |  |  | NanoBRET Fold Response [1, 5]: 1.14; NanoBRET Fold Response [1, 6]: 0.86; NanoBRET Fold Response [2, 5]: 1.14; NanoBRET Fold Response [2, 6]: 1.33; NanoBRET Fold Response [3, 5]: 0.97; NanoBRET Fold Response [3, 6]: 1.02; NanoBRET Fold Response ([4]; tracer at 0.1μM): 1.07; NanoBRET Fold Response ([4]; tracer at 1μM): 1.01
O=C(CCOCCOCCOCCOCCNC(=O)CCc1ccc2n1[B-](F)(F)[N+]1=C(c3ccc[nH]3)C=CC1=C2)NCCCN1CCN(C2=Nc3ccccc3Oc3ccc(Cl)cc32)CC1 [Loxapine-a-2-NB590] | 1.05 | 0.91 | 1.05 | 1.27 | 0.99 | 1.08 | 1.09 | 1.08 | 
CN(C)CCC=C1c2ccccc2CCc2ccc(C(=O)NCCNC(=O)CCOCCOCCOCCOCCNC(=O)CCc3ccc4n3[B-](F)(F)[N+]3=C(c5ccc[nH]5)C=CC3=C4)cc21 [Amitriptyline-a-2-NB590] |  |  |  |  |  |  |  |  | NanoBRET Fold Response ([1]; tracer at 0.1μM): 1.07; NanoBRET Fold Response ([1]; tracer at 1μM): 0.99; NanoBRET Fold Response ([2]; tracer at 0.1μM): 1.13; NanoBRET Fold Response ([2]; tracer at 1μM): 1.04; NanoBRET Fold Response ([3]; tracer at 0.1μM): 1.05; NanoBRET Fold Response ([3]; tracer at 1μM): 1.00
O=C(CCc1ccc2n1[B-](F)(F)[N+]1=C(c3ccc[nH]3)C=CC1=C2)NCCOCCOCCNC(=O)OCCOCCN1CCN(C2=Nc3ccccc3Sc3ccccc32)CC1 [Quetiapine-a-2-NB590] | 0.90 | 0.95 | 1.42 | 0.65 | 1.03 | 0.89 | 1.07 | 1.05 | 
COc1ccccc1N1CCN(CCCCN2C(=O)c3ccc(CNC(=O)CCOCCOCCOCCOCCNC(=O)CCc4ccc5n4[B-](F)(F)[N+]4=C(c6ccc[nH]6)C=CC4=C5)cc3C2=O)CC1 [NAN-190-2-NB590] | 0.99 | 0.86 | 1.05 | 1.06 | 0.97 |  | 0.93 | 1.04 | 
CN(CCC=C1c2ccccc2CCc2ccccc21)C(=O)CCOCCOCCOCCOCCNC(=O)CCc1ccc2n1[B-](F)(F)[N+]1=C(c3ccc[nH]3)C=CC1=C2 [Amitriptyline-e-2-NB590] |  |  |  |  |  |  |  |  | NanoBRET Fold Response ([1]; tracer at 1μM): 0.99
